Measurements published in US6447775B1, “Modulators of expression and function of LRP in Alzheimer's disease” (The General Hospital Corporation, priority 1995, dated 2002).
Entries after “also recorded” stand apart in the source; their conditions may differ.

Experiments:
LRP = LRP (Homo sapiens, UniProt Q07954); experiment: ELISA of LRP binding to APPs770 captured on zinc-coated wells; conditions: LRP 25 nM, RAP 0.2-450 nM
Description: In panel A, zinc-coated wells (∘) or zinc-coated wells incubated with APPs770 (●) were incubated with the APPs770 monoclonal antibody 7H5. In panel B, increasing concentrations of LRP (0.14-300 nM) were incubated for 18 h at 4° C. with zinc-coated wells (∘) or zinc-coated wells with captured APPs770 (●). Panel C, LRP (25 nM) was incubated with zinc-coated wells (∘) or zinc-coated wells with captured APPs770 (●) in the presence of increasing concentrations of RAP (0.2-450 nM). Bound receptor was detected with the monoclonal LRP antibody 8G1. In the absence of LRP there was no binding of 8G1 IgG to APPs770-coated wells. Plotted values represent means of duplicate determinations.

[1] = test system: LRP-expressing (MEF) cells; experiment: Cellular internalization and degradation of 125I-labeled ligands by LRP-expressing mouse fibroblasts; assay type: cell-based
Description: (§1) Wells containing 2×10^5 LRP-expressing (MEF) or LRP-deficient (PEA13) cells were incubated with various concentrations (0.37-10 nM) of ^125I-APPs770 (Panels A and B) or 125I-APPs695 (Panels C and D) for 10 h at 37° C. in the absence of competitor (●) or in the presence of either 1 μM RAP (∘), or 100 μg/ml heparin (□). The cellular degradation of ^125I-labeled APPs770 by LRP-expressing MEF cells is shown in panel A and by LRP-deficient PEA13 cells in panel B. The cellular degradation of ^125I-APPs695 by LRP-expressing cells is depicted in panel C and by LRP-deficient cells in panel D. Plotted values represent means of duplicate determinations. Inset to panel B, autoradiogram of ^125I-labeled APPs770 (lane 1) and APPs695 (lane 2). The migration position of molecular mass standards are indicated on the right in kDa.
Wells containing 2×10^5 LRP-expressing (●) or LRP-deficient (∘) mouse fibroblasts were incubated with ^125I-LDL (8 μg/ml) or ^125I-α2M* (1.4 nM) for selected time intervals. […] Shown are the amounts of ^125I-LDL internalized (panel A) and degraded (panel B), ^125I-α2M* internalized (panel C) and degraded (panel D). The plotted values represent means of duplicate determinations.
Mouse fibroblasts (2×10^5 cells per well) were incubated for selected times with ^125I-APPs770 (1 nM) in the absence of competitor (●) or in the presence of either 1 μM RAP (∘), or 100 μg/ml heparin (□). The amount of radioactivity internalized and degraded was determined at the indicated time intervals. […] The plotted values are means of duplicate determinations.
Mouse fibroblasts (2×10^5 cells/well) were incubated for 18 h at 37° C. with ^125I-APPs770 (10 nM) in the absence of competitor or in the presence of either heparin (100 μg/ml), chloroquine (0.1 mM), RAP (1 μM), affinity purified anti-LRP IgG (100 μg/ml), or control IgG against the cytoplasmic domain of LRP (100 μg/ml). Panels show the amount of ^125I-APPs770 degraded by mouse fibroblasts expressing LRP (A) or ones deficient in LRP expression (B). The data shown are means of duplicate determinations±S. E.
Wells containing 2×10^5 LRP-expressing (MEF) or LRP-deficient (PEA13) cells were incubated with ^125I-APPs770 (5 nM) or ^125I-APPs770:FIXa (3 nM) for 18 h at 37° C. in the absence of competitor or in the presence of 1 μM RAP. The amount of ^125I-labeled APPs770 or ^125I-APPs770:Factor IXa degraded by LRP-expressing MEF cells is shown in panel A and that by LRP-deficient PEA13 cells in panel B. Plotted values represent means of duplicate determinations.
Mouse fibroblasts (2×10^5) were incubated for 18 h at 37° C. with ^125I-APP/PN-2 (8.8 nM) in the absence of competitor or in the presence of either RAP (1 μM)), 10 μg/ml apoE3/βVLDL, 10 μg/ml apoE4/βVLDL, or 10 μg/ml βVLDL. […]

[2] = test system: LRP-deficient (PEA13) cells; experiment: Cellular internalization and degradation of 125I-labeled ligands by LRP-deficient mouse fibroblasts; assay type: cell-based
Description: as §1
Wells containing 2×10^5 LRP-expressing (●) or LRP-deficient (∘) mouse fibroblasts were incubated with ^125I-LDL (8 μg/ml) or ^125I-α2M* (1.4 nM) for selected time intervals. […]
Mouse fibroblasts (2×10^5 cells per well) were incubated for selected times with ^125I-APPs770 (1 nM) in the absence of competitor (●) or in the presence of either 1 μM RAP (∘), or 100 μg/ml heparin (□). The amount of radioactivity internalized and degraded was determined at the indicated time intervals. […]

Sequence of LRP (Q07954 20-3943 limits assumed): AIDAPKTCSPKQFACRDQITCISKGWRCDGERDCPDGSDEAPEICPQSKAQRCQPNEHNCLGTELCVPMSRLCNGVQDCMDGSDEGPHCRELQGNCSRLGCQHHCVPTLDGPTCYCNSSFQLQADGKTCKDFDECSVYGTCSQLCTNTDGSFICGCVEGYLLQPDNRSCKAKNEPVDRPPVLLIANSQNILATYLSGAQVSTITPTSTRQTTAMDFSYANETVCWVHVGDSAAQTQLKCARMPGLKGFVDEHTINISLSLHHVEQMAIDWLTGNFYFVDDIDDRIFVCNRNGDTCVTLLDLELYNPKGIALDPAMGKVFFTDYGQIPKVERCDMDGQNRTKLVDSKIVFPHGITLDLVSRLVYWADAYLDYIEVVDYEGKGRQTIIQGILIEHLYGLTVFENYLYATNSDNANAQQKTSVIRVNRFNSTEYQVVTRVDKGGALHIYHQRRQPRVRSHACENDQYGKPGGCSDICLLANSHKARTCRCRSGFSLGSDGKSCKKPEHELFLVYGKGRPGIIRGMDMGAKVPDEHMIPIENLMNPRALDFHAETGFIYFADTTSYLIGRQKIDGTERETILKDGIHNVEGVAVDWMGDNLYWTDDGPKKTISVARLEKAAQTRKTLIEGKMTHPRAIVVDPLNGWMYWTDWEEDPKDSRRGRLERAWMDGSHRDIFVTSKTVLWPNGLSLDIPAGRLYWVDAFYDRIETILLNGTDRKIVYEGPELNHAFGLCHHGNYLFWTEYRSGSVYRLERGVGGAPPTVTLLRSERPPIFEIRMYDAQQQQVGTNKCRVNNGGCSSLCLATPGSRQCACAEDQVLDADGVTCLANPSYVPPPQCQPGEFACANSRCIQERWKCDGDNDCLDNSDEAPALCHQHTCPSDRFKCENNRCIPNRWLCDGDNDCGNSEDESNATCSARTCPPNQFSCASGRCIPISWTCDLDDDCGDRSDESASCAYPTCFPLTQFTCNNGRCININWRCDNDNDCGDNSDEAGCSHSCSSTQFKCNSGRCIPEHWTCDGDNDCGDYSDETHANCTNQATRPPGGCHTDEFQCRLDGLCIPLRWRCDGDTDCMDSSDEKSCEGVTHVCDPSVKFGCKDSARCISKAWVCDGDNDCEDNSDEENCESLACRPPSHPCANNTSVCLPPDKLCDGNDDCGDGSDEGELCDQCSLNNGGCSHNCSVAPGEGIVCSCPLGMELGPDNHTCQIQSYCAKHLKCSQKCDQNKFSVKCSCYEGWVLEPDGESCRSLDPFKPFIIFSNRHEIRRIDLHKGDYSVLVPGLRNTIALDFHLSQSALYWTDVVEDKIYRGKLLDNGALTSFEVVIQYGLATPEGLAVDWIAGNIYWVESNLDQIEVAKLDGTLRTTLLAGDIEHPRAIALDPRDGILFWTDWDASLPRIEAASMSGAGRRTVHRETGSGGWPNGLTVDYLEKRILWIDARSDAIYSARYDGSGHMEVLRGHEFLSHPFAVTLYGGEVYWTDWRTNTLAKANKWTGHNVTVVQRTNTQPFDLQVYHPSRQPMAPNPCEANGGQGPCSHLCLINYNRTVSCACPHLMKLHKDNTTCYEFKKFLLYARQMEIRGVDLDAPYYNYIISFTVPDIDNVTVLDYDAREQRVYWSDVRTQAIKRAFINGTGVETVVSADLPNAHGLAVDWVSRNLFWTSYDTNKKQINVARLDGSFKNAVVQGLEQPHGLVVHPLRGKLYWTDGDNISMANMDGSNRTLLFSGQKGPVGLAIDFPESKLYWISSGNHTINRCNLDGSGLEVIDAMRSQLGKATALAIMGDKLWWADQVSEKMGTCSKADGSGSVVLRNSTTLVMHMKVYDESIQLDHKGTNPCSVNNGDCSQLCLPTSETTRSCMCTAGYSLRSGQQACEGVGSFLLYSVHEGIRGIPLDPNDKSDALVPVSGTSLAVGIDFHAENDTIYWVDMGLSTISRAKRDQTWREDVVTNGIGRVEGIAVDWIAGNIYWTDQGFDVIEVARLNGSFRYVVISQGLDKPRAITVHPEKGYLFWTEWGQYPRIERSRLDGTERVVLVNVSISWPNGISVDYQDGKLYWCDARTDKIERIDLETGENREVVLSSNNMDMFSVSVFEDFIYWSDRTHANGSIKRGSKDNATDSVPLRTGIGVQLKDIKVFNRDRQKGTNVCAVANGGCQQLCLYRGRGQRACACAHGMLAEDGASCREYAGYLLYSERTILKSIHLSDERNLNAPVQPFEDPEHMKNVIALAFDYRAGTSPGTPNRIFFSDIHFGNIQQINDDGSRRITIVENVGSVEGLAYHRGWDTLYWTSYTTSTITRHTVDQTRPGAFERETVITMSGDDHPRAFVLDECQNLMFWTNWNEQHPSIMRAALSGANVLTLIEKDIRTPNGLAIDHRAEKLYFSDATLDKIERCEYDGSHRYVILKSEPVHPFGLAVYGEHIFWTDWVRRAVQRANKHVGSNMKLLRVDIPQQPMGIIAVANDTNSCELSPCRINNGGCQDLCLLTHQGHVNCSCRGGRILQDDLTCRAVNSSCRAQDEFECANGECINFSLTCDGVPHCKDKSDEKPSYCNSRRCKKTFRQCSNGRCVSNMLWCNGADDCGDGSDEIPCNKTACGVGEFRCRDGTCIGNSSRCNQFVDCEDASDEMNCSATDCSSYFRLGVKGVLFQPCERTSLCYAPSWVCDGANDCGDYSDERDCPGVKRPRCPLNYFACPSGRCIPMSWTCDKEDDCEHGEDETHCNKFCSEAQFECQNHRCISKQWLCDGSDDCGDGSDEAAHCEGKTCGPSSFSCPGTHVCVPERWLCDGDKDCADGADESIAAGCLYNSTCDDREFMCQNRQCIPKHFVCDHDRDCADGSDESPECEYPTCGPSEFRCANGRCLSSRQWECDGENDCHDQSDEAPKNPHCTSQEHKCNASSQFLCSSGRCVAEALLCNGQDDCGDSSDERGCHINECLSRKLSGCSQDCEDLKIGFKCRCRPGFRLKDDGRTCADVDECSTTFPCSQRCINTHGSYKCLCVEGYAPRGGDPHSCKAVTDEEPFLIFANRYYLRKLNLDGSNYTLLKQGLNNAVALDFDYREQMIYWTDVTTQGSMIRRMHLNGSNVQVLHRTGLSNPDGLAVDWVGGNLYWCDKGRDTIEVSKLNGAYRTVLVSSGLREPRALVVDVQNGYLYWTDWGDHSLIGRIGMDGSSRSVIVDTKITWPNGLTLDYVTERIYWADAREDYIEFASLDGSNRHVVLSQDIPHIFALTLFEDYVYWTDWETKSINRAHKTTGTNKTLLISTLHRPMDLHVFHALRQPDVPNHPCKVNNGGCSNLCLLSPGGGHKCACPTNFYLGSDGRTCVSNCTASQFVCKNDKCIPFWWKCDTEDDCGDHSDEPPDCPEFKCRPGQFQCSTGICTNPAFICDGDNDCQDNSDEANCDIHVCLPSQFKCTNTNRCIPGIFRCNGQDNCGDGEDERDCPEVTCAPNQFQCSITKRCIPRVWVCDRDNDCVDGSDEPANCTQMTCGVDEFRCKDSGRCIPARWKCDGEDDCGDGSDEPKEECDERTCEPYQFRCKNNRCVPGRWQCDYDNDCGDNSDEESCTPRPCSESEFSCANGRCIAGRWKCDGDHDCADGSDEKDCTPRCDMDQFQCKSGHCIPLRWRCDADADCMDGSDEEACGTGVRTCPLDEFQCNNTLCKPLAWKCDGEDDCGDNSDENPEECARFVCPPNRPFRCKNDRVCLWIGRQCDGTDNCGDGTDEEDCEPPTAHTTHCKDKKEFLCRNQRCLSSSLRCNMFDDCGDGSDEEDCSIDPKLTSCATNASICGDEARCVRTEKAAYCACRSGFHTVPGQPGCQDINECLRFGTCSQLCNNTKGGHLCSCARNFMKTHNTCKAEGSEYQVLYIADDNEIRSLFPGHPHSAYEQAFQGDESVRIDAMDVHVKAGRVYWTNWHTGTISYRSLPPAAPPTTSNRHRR
Sequence of LRP (Q07954 3944-4544 partner limits assumed): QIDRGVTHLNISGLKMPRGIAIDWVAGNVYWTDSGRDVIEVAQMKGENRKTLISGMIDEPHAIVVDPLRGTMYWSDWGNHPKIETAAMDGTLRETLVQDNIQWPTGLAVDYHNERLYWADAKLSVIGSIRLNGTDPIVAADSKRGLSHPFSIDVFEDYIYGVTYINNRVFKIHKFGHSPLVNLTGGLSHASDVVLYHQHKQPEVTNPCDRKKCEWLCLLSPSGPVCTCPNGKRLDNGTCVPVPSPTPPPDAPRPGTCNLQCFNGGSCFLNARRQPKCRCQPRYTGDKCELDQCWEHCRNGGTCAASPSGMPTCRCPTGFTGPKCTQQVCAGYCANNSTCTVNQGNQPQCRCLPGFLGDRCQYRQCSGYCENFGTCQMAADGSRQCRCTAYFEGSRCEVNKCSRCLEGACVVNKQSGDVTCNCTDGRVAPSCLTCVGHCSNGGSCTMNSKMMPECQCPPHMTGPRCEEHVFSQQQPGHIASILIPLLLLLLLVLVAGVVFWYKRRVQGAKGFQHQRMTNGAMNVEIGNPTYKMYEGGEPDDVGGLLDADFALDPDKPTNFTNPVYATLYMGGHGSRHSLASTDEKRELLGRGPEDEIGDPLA

Molecule: RAP: 39 kDa receptor associated protein that binds members of the LDL receptor family and blocks their ligand binding capacity
- inhibition of APP binding to LRP (LRP): inhibition of APP binding
- inhibition of 125I-APPs770 degradation by apoE isoforms/βVLDL or RAP ([1]; 18 h at 37° C., 125I-APP/PN-2 8.8 nM, 10 μg/ml apoE/βVLDL or RAP 1 μM, F(4,15)=21.65, p=0.0001, p<0.05 vs βVLDL alone, RAP p<0.001): statistically significant
- inhibition of catabolism/degradation of APP (125I-APPs770) by added competitor ([1]; LRP-containing fibroblasts, RAP 1 μM, anti-LRP IgG 100 μg/ml): inhibition of catabolism of APP; also recorded: inhibition of degradation

Molecule: heparin
- inhibition of internalization of APP (125I-APPs770) ([2]; 125I-APPs770 1 nM, heparin 100 μg/ml): inhibition of internalization of APP
- inhibition of internalization of APP (125I-APPs770) ([1]; LRP-containing fibroblasts, 125I-APPs770 1 nM, heparin 100 μg/ml): inhibition of internalization of APP

B1: α2-macroglobulin: 125I-labeled α2-macroglobulin, LRP ligand control (protein, UniProt P01023 24-1474, looked up)
Alpha-2-macroglobulin: SVSGKPQYMVLVPSLLHTETTEKGCVLLSYLNETVTVSASLESVRGNRSLFTDLEAENDVLHCVAFAVPKSSSNEEVMFLTVQVKGPTQEFKKRTTVMVKNEDSLVFVQTDKSIYKPGQTVKFRVVSMDENFHPLNELIPLVYIQDPKGNRIAQWQSFQLEGGLKQFSFPLSSEPFQGSYKVVVQKKSGGRTEHPFTVEEFVLPKFEVQVTVPKIITILEEEMNVSVCGLYTYGKPVPGHVTVSICRKYSDASDCHGEDSQAFCEKFSGQLNSHGCFYQQVKTKVFQLKRKEYEMKLHTEAQIQEEGTVVELTGRQSSEITRTITKLSFVKVDSHFRQGIPFFGQVRLVDGKGVPIPNKVIFIRGNEANYYSNATTDEHGLVQFSINTTNVMGTSLTVRVNYKDRSPCYGYQWVSEEHEEAHHTAYLVFSPSKSFVHLEPMSHELPCGHTQTVQAHYILNGGTLLGLKKLSFYYLIMAKGGIVRTGTHGLLVKQEDMKGHFSISIPVKSDIAPVARLLIYAVLPTGDVIGDSAKYDVENCLANKVDLSFSPSQSLPASHAHLRVTAAPQSVCALRAVDQSVLLMKPDAELSASSVYNLLPEKDLTGFPGPLNDQDNEDCINRHNVYINGITYTPVSSTNEKDMYSFLEDMGLKAFTNSKIRKPKMCPQLQQYEMHGPEGLRVGFYESDVMGRGHARLVHVEEPHTETVRKYFPETWIWDLVVVNSAGVAEVGVTVPDTITEWKAGAFCLSEDAGLGISSTASLRAFQPFFVELTMPYSVIRGEAFTLKATVLNYLPKCIRVSVQLEASPAFLAVPVEKEQAPHCICANGRQTVSWAVTPKSLGNVNFTVSAEALESQELCGTEVPSVPEHGRKDTVIKPLLVEPEGLEKETTFNSLLCPSGGEVSEELSLKLPPNVVEESARASVSVLGDILGSAMQNTQNLLQMPYGCGEQNMVLFAPNIYVLDYLNETQQLTPEIKSKAIGYLNTGYQRQLNYKHYDGSYSTFGERYGRNQGNTWLTAFVLKTFAQARAYIFIDEAHITQALIWLSQRQKDNGCFRSSGSLLNNAIKGGVEDEVTLSAYITIALLEIPLTVTHPVVRNALFCLESAWKTAQEGDHGSHVYTKALLAYAFALAGNQDKRKEVLKSLNEEAVKKDNSVHWERPQKPKAPVGHFYEPQAPSAEVEMTSYVLLAYLTAQPAPTSEDLTSATNIVKWITKQQNAQGGFSSTQDTVVALHALSKYGAATFTRTGKAAQVTIQSSGTFSSKFQVDNNNRLLLQQVSLPELPGEYSMKVTGEGCVYLQTSLKYNILPEKEEFPFALGVQTLPQTCDEPKAHTSFQISLSVSYTGSRSASNMAIVDVKMVSGFIPLKPTVKMLERSNHVSRTEVSSNHVLIYLDKVSNQTLSLFFTVLQDVPVRDLKPAIVKVYDYYETDEFAIAEYNAPCSKDLGNA
modifications: 125I label
notes: 125I-labeled α2-macroglobulin, LRP ligand control
- catabolism (internalization and degradation) of 125I-labeled ligand by cells ([2]; 37° C., no competitor): lack of both internalization and degradation
- catabolism (internalization and degradation) of 125I-labeled ligand by cells ([1]; LRP-containing fibroblasts, 37° C., no competitor): internalization and degradation
